Columns and labels:
cancer cells = details: cancer cells; cited from earlier work
Caco-2 cell monolayers [1] = assay: Toxin crossing and apparent permeability across Caco-2 cell monolayers (A to B), LC-MS/MS; format: in vitro ADME, human; details: for % theoretical amount of toxin crossing the Caco-2 cell monolayers: relative to theoretical loaded concentration; for Percentage of toxin crossing the Caco-2 cell monolayers: A to B, relative to quantified T0; for permeability / oral bioavailability class from Caco-2 Papp: threshold Papp > 1.5 × 10^−6 cm·s^−1 = highly penetrative
Description: (§1) All experiments were performed with human intestinal Caco-2 cells (ATCC-HTB37), acquired from the American Type Culture Collection (ATCC; Manassas, VA, USA). Caco-2 cells originate from a colorectal adenocarcinoma, but upon reaching confluence, they differentiate and express the characteristics of enterocytes. The cells were cultivated in minimum essential medium containing 5.5 mM D-glucose, Earle’s salts, and 2 mM L-alanyl-glutamine (MEM GlutaMAX™, Gibco, Bromont, QC, Canada) supplemented with 10% fetal bovine serum (FBS, Gibco), 1% non-essential amino acids, 50 U/mL penicillin, and 50 μg/mL streptomycin (Gibco) under humidified conditions (37 °C, 5% CO2, 95% humidity). The cells were grown for 3–4 days up to 80% confluence before trypsinization and sub-culture. For the experiments, the cells were seeded in TRANSWELL® plates (12 wells, 0.4 µm pore size; Costar®, Corning Incorporated, Corning, NY, USA) at a density of 90,000 cells/cm^2. Prior to toxin treatment, highly differentiated Caco-2 cells were obtained after 24–26 days of culture, with medium renewal every 2–3 days. Passage numbers between 30 and 40 were used for experiments.
(§2) PnTX-A, PnTX-G, PnTX-E, PnTX-H, and portimine stock solutions were prepared in methanol, while PnTX-F was provided in acetonitrile/acetic acid (50%/0.1%). For each toxin, the cells were incubated at 8, 16, and 32 ng/mL (diluted in HBSS) for 2 h, 6 h, and 24 h, with a final volume of 1.5% solvent. The controls were incubated with the cell culture medium containing the respective solvent of the toxin at 1.5%. Each experiment included three biological replicates. Two to three independent experiments were conducted.
(§3) The apical and basolateral compartments were collected after 2, 6, and 24 h treatment time. Parts of the solutions that were used to load the apical compartments were also stored (T0) to take into account the real concentration and not the estimated concentration. All the samples were stored at −20 °C until LC/MS analysis.
(§4) The LC-MS/MS analysis of toxins was implemented for the quantitative analysis of toxins. The LC system was an Agilent 1200 (Agilent Technologies, Santa Clara, CA, USA). The chromatographic separation was performed using a column Hypersil GOLD® C18 50 mm × 2.1 mm, 1.9 μm (Thermo Scientific, Waltham, MA, USA). Eluent A consisted of water, and eluent B of acetonitrile/water at a ratio of 95:5 (v/v), with both eluents containing 50 mM formic acid and 2 mM ammonium formate. The LC flow rate was 0.4 mL/min, and the gradient was programmed as follows: 10% B held for 0.5 min, 10–90% B in 5 min, 90% B held for 1 min, 90–10% B in 0.5 min, and 10% B held for 3.0 min, for a total run time of 10 min. The injection volume was 5 μL, while the column temperature was maintained at 40 °C. The column effluent was transferred via a divert valve (Valco Instruments Co., Inc., Houston, TX, USA), either to the mass spectrometer (between 1.7 and 5.5 min) or to waste.
(§5) The detection system was constructed with an API 4000 triple quadrupole mass spectrometer (Sciex, Framingham, MA, USA) equipped with an ElectroSpray Ionization (ESI) source (Turbo V). The mass spectrometer was operated in positive ESI mode. The source temperature was set at 600 °C, and the spray voltage was 5500 V. Air was used as a nebulizer gas and an auxiliary gas, with a gas pressure of 40 and 60 psi, respectively. Meanwhile, the curtain gas and collision gas were nitrogen, with a gas pressure of 15 and 8 psi, respectively. The mass spectrometer was operated in multiple reaction monitoring mode (MRM). One transition was used for quantification (Q) and another as a qualifier transition (q). A mass resolution of 0.7 Da full width at half maximum (FWHD) was set on the first (Q1) and the third (Q3) quadrupoles. Instrument control and data were handled with Analyst software version 1.5.1 (Sciex, Framingham, MA, USA).
(§6) The portimine and PnTX retention times varied between 2.7 and 4.4 min (Figure S1). […]

[2] = as above; format: in vitro ADME, human; details: human, Caco-2, A to B; for Papp at 2 h, 8 ng/mL / Papp at 6 h, 8 ng/mL: loaded 8 ng/mL; for Papp at 2 h, 16 ng/mL / Papp at 6 h, 16 ng/mL: loaded 16 ng/mL; for Papp at 2 h, 32 ng/mL / Papp at 6 h, 32 ng/mL: loaded 32 ng/mL
Description: as §1, §2, §3, §4, §5, §6

Caco-2 cells = assay: Trans-epithelial electrical resistance (TEER) of differentiated Caco-2 monolayers; format: cell-based, human; details: 24 h
Description: as §1, §2
Epithelial integrity was examined by measuring the TEER between the apical and basolateral compartments. After rinsing with a HBSS solution (HBSS, HEPES 5 mM, pH 7.4), the Caco-2 monolayers were equilibrated for 30 min at 37 °C with 300 and 1000 µL HBSS in the apical (A) and basolateral (B) chambers, respectively. Then, the content of the apical compartment was replaced with 500 µL HBSS-containing toxins. TEER was quantified with a Millipore Millicell Electrical Resistance System (ERS Millipore, EMD Millipore Corporation, Burlington, MA, USA). The mean value of two measurements per well before and after the treatment was calculated and multiplied by the surface of the insert to obtain Ω × cm^2. After blank subtraction, the results were presented as a percentage of the solvent control.

mice = details: cited from earlier work
Caco-2 cell monolayers [3] = assay: Lucifer Yellow paracellular permeability (barrier integrity); format: cell-based, human; details: 24 h
Description: as §1, §2
For the assay, both compartments of the insert system were washed with Hank’s balanced salt solution (HBSS). Then, 0.5 mL of 0.1 mg/mL Lucifer Yellow in HBSS buffer and 1 mL of pure HBSS buffer were added to the apical and basolateral compartments, respectively. After a 2 h incubation at 37 °C, the media of the basolateral compartments were collected and the fluorescence of each compartment was measured in triplicate (excitation: 405 nm, emission: 520 nm) with a FLUOstar Optima microplate reader (BMG Labtech, Ortenberg, Germany). After subtraction of the blank (HBSS), the permeability of the […] was calculated against the value obtained for pure LY and reported as % permeability.

[4] = set-up: method as in PMID 32246951; details: Anses 2020; cited from earlier work
rats = test system: rats; set-up: method as in PMID 34380275; details: six hours after gavage of rats with [H^3] 100 µg/kg; liver, kidney, spleen, brain regions; cited from earlier work

Compound | % theoretical amount of toxin crossing the Caco-2 cell monolayers (Caco-2 cell monolayers [1]; 2 h, 8 ng/mL) [%] | % theoretical amount of toxin crossing the Caco-2 cell monolayers (Caco-2 cell monolayers [1]; 2 h, 16 ng/mL) [%] | % theoretical amount of toxin crossing the Caco-2 cell monolayers (Caco-2 cell monolayers [1]; 2 h, 32 ng/mL) [%] | Percentage of toxin crossing the Caco-2 cell monolayers (Caco-2 cell monolayers [1]; 2 h, loaded 8 ng/mL) [%] | Percentage of toxin crossing the Caco-2 cell monolayers (Caco-2 cell monolayers [1]; 2 h, loaded 16 ng/mL) [%] | Percentage of toxin crossing the Caco-2 cell monolayers (Caco-2 cell monolayers [1]; 2 h, loaded 32 ng/mL) [%] | % theoretical amount of toxin crossing the Caco-2 cell monolayers (Caco-2 cell monolayers [1]; 6 h, 8 ng/mL) [%] | % theoretical amount of toxin crossing the Caco-2 cell monolayers (Caco-2 cell monolayers [1]; 6 h, 16 ng/mL) [%] | % theoretical amount of toxin crossing the Caco-2 cell monolayers (Caco-2 cell monolayers [1]; 6 h, 32 ng/mL) [%] | Percentage of toxin crossing the Caco-2 cell monolayers (Caco-2 cell monolayers [1]; 6 h, loaded 8 ng/mL) [%] | Percentage of toxin crossing the Caco-2 cell monolayers (Caco-2 cell monolayers [1]; 6 h, loaded 16 ng/mL) [%] | Percentage of toxin crossing the Caco-2 cell monolayers (Caco-2 cell monolayers [1]; 6 h, loaded 32 ng/mL) [%] | permeability / oral bioavailability class from Caco-2 Papp (Caco-2 cell monolayers [1]) | Papp at 2 h, 8 ng/mL [2] [×10⁻⁶ cm/s] | Papp at 2 h, 16 ng/mL [2] [×10⁻⁶ cm/s] | Papp at 2 h, 32 ng/mL [2] [×10⁻⁶ cm/s] | Papp at 6 h, 8 ng/mL [2] [×10⁻⁶ cm/s] | Papp at 6 h, 16 ng/mL [2] [×10⁻⁶ cm/s] | Papp at 6 h, 32 ng/mL [2] [×10⁻⁶ cm/s] | further results
C=CC1=CC2C3O[C@]4(CCC(O4)[C@@H](C)C[C@@H](O)C3=O)CC(=O)C3=NCC[C@@]32CC1 (some centres unmarked) [Portimine-B, portimine-B, reference compound] | – | – | – | – | – | – | – | – | – | – | – | – | – | – | – | – | – | – | – | apoptosis induction (cancer cells): induces apoptosis in cancer cells but with less activity
C=C1CCCC2=NCC(C)C(C)CC23CCC(C2CCC(=O)O2)=CC3C2OC3(CC(C)CC2O3)CC2OC3(CCC4(OC(CCC4(C)O)C1)O3)CC(C)C2O (centres unmarked) [PnTX-F] | 4.75 ± 0.35 | 4.00 ± 0.00 | 5.03 ± 0.31 | 14.43 ± 2.73 | 10.12 ± 3.82 | 11.20 ± 3.27 | 8.75 ± 2.12 | 7.44 ± 0.97 | 10.31 ± 2.83 | 26.00 ± 0.52 | 18.36 ± 4.64 | 22.09 ± 1.76 | high oral bioavailability | 8.95 ± 1.69 | 6.28 ± 2.37 | 6.94 ± 2.03 | 16.1 ± 0.24 | 11.4 ± 2.88 | 13.7 ± 1.09 | percentage of toxin crossing (text summary over 8-32 ng/mL) (Caco-2 cell monolayers [1]; 2 h): around 12%; TEER (Caco-2 cells; 32 ng/mL): 67 ± 5.6 % of the control value; effect on TEER (Caco-2 cells; 8 and 16 ng/mL): slight non-significant decrease; macroscopic lesions on the intestine, other organs and tissues (mice; mice, oral exposure): no macroscopic lesions; effect on LY permeability (Caco-2 cell monolayers [3]; all concentrations (8, 16, 32 ng/mL)): significant increase
C=CC1=CC2C3OC4(CC5CCCC6(CCC7(OC(CCC7(C)O)CC(=C)CCCC7=NCC(C)C(C)CC72CC1)O6)O5)CC(C)C(O)C3O4 (centres unmarked) [PnTX-G, Pinnatoxin G] | 6.83 ± 1.04 | 8.37 ± 1.19 | 8.64 ± 0.53 | 15.62 ± 5.24 | 23.32 ± 4.36 | 23.07 ± 5.56 | 15.17 ± 0.58 | 13.25 ± 1.30 | 16.58 ± 2.86 | 34.43 ± 9.39 | 36.83 ± 5.26 | 43.41 ± 6.15 | high oral bioavailability | 9.69 ± 3.25 | 14.4 ± 2.7 | 14.3 ± 3.45 | 21.4 ± 5.82 | 22.8 ± 3.26 | 26.9 ± 3.82 | effect on TEER (Caco-2 cells; 16 and 32 ng/mL): slight, but non-significant, decrease; effect on the small intestine (mice; mice orally treated with 300 μg/kg and above, villous atrophy, focal degeneration of epithelial cells): alteration of the small intestine; onset of toxicity after oral exposure (mice; oral exposure to a certain dose): within one hour; provisional acute health-based guidance value [4]: 0.13 μg PnTX-G/kg body weight per day; tissue distribution of radioactivity (rats): radioactivity was distributed in the peripheral organs; effect on passage of LY (Caco-2 cell monolayers [3]): lower effect

From paper PMC11766601, “A Comparative Study of the In Vitro Intestinal Permeability of Pinnatoxins and Portimine” (Marine Drugs, 2025)
